Laboratory results published in article PMC7076352 (Pharmaceutics, 2020).
Several values for one entry are separate records, joined by “and”; a condition that tells them apart may be missing. Equal values may be shown once. Read-outs that look alike come from different tables or passages of the source. One block for each molecule: values may come before it.

Experiments:
CYP2C19 = assay: In vitro cocktail CYP450 activity assay in rat liver microsomes, CYP2C19 (omeprazole probe)
Method: (§1) (OHBUP-[D6]) and 5 nM 4′-hydroxydiclofenac-[^13C6] (OHDIC-[^13C6]) as internal standards (ISs). […]
(§2) standard addition experiments. Each group included four concentration levels. For the PK […]
(§3) The probe compounds, viz. […]
(§4) chosen after incubating all the recruited substrates. In order to assure the linear relationship […]
(§5) The incubation system was also optimized in terms of substrate concentrations. The substrates concentrations of […]

CYP2D6 = assay: in vitro
Method: as §1, §2, §3, §4, §5

CYP2B6 = assay: In vitro cocktail CYP450 activity assay in rat liver microsomes, CYP2B6 (bupropion probe); conditions: for IC50 at 15 min: Sprague-Dawley, rat, pooled rat liver microsomes, pH 7.4, probe bupropion (90 µM, in seven-probe cocktail), IC50 CYP2B6, single components
Method: as §1, §2, §3, §4, §5

CYP2C9 = assay: In vitro cocktail CYP450 activity assay in rat liver microsomes, CYP2C9 (tolbutamide probe)
Method: as §1, §2, §3, §4, §5

CYP3A4 = assay: in vitro
Method: as §1, §2, §3, §4, §5

CYP2E1 [1] = target: T1, CYP2E1 (Rattus norvegicus, UniProt P05182)
T1 sequence (P05182 whole entry): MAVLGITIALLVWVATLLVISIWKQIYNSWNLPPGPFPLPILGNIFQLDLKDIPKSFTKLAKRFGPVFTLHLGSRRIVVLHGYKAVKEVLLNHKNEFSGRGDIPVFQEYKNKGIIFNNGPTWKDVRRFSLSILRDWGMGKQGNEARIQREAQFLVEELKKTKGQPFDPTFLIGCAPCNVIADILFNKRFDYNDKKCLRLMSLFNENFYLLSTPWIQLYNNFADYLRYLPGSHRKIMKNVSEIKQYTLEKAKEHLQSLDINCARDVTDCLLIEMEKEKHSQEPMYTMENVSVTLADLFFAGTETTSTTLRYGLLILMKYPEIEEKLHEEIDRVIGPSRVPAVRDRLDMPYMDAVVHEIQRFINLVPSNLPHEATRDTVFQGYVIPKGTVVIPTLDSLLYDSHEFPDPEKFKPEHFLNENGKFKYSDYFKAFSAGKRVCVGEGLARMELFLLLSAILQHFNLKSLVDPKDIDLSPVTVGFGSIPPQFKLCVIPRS

CYP1A2 = target: T2, CYP1A2 (Rattus norvegicus, UniProt P04799); assay: In vitro cocktail CYP450 activity assay in rat liver microsomes, CYP1A2 (phenacetin probe)
T2 sequence (P04799 1-513): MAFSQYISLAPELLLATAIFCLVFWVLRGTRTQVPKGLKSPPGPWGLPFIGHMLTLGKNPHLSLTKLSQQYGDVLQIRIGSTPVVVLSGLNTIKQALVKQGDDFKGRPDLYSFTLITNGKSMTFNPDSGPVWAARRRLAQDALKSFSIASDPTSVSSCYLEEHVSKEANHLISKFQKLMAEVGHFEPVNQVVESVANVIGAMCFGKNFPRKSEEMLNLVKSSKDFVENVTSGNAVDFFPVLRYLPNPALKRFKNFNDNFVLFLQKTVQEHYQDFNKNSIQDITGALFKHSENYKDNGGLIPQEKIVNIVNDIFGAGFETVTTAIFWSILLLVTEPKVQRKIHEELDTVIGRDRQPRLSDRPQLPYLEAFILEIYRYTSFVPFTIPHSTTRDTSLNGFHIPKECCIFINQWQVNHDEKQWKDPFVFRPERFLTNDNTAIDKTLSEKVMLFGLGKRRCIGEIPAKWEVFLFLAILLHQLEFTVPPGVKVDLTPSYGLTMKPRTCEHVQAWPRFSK
Method: as §1, §2, §3, §4, §5

CYP2E1 [2] = target: T1, CYP2E1; conditions: IC50 CYP2E1, single components; RLM 0.2 mg/mL, 15 min, triplicate, mean ± SD
[3] = read-out: IC50 CYP2C19, single components, RLM 0.2 mg/mL, 15 min, triplicate, mean ± SD
[4] = read-out: IC50 CYP2D6, single components, RLM 0.2 mg/mL, 15 min, triplicate, mean ± SD
[5] = read-out: IC50 CYP2B6, single components, RLM 0.2 mg/mL, 15 min, triplicate, mean ± SD
[6] = read-out: IC50 CYP2C9, single components, RLM 0.2 mg/mL, 15 min, triplicate, mean ± SD
[7] = read-out: IC50 CYP3A4, single components, RLM 0.2 mg/mL, 15 min, triplicate, mean ± SD
[8] = read-out: IC50 CYP2E1, single components, RLM 0.2 mg/mL, 15 min, triplicate, mean ± SD
[9] = read-out: IC50 CYP1A2, single components, RLM 0.2 mg/mL, 15 min, triplicate, mean ± SD
[10] = RLM 0.2 mg/mL, 15 min, triplicate, mean ± SD
[11] = Sprague-Dawley, rat, microsomes, pH 7.4
[12] = IC50 CYP1A2, single components, RLM 0.2 mg/mL, 15 min, triplicate, mean ± SD

Molecule: O=c1c(O[C@@H]2O[C@H](CO)[C@@H](O)[C@H](O)[C@H]2O)c(-c2ccc(O)cc2)oc2cc(O)cc(O)c12 [A7, kaempferol-3-O-glucoside]
IC50 (CYP2C19; [3]): 18.5 ± 1.6 µM
IC50 (CYP2D6; [4]): 31 ± 4.17 µM
IC50 (CYP2B6; [5]): 177 ± 4.21 µM
IC50 (CYP2C9; [6]): 80.5 ± 1.05 µM
IC50 (CYP3A4; [7]): 127 ± 4.24 µM
IC50 (CYP2E1 [1]; [8]): 13.6 ± 0.6 µM
IC50 (CYP1A2; [9]): 153 ± 8.73 µM

IC50 (CYP2C19; microsomes): > 200 µM
IC50 (CYP2D6; microsomes): > 200 µM
IC50 (CYP2B6; microsomes): > 200 µM
IC50 (CYP2C9; microsomes): 39.06 ± 0.09 µM
IC50 (CYP3A4; microsomes): > 200 µM
IC50 (CYP2E1 [1]; microsomes): > 200 µM
IC50 (CYP1A2; microsomes): > 200 µM
Molecule: O=c1c(OC2O[C@H](CO)[C@@H](O)[C@H](O)[C@H]2O)c(-c2ccc(O)cc2)oc2cc(OC3O[C@H](CO)[C@@H](O)[C@H](O)[C@H]3O)c(OC3O[C@H](CO)[C@@H](O)[C@H](O)[C@H]3O)c(O)c12 (some centres unmarked) [A10, 6-hydroxykaempferol-3,6,7-tri-O-glucoside]

IC50 (CYP2C19; microsomes): > 200 µM
IC50 (CYP2D6; microsomes): 98.6 ± 12.3 µM
IC50 (CYP2B6; microsomes): > 200 µM
IC50 (CYP2C9; microsomes): > 200 µM
IC50 (CYP3A4; microsomes): > 200 µM
IC50 (CYP2E1 [1]; microsomes): > 200 µM
IC50 (CYP1A2; microsomes): > 200 µM
Molecule: C[C@@H]1OC(OC[C@H]2OC(Oc3c(-c4ccc(O)cc4)oc4cc(O)c(OC5O[C@H](CO)[C@@H](O)[C@H](O)[C@H]5O)c(O)c4c3=O)[C@H](O)[C@@H](O)[C@@H]2O)[C@H](O)[C@H](O)[C@H]1O (some centres unmarked) [A12, 6-hydroxykaempferol-3-O-rutinosyl-6-O-glucoside]

Molecule: O=c1c(O[C@@H]2O[C@H](CO)[C@@H](O)[C@H](O)[C@H]2O[C@@H]2O[C@H](CO)[C@@H](O)[C@H](O)[C@H]2O)c(-c2ccc(O)cc2)oc2cc(O)cc(O)c12 [A14, kaempferol-3-O-sophoroside]
IC50 (CYP2C19; microsomes): > 200 µM
IC50 (CYP2D6; microsomes): > 200 µM
IC50 (CYP2B6; microsomes): > 200 µM
IC50 (CYP2C9; [6]): > 200 µM
IC50 (CYP3A4; [7]): > 200 µM
IC50 (CYP2E1 [1]; [8]): > 200 µM
IC50 (CYP1A2; [9]): > 200 µM

IC50 (CYP2C19; microsomes): > 200 µM
IC50 (CYP2D6; microsomes): > 200 µM
IC50 (CYP2B6; microsomes): > 200 µM
IC50 (CYP2C9; microsomes): > 200 µM
IC50 (CYP3A4; microsomes): > 200 µM
IC50 (CYP2E1 [1]; microsomes): > 200 µM
IC50 (CYP1A2; microsomes): 127 ± 6.55 µM
Molecule: O=C(O)[C@H]1OC(Oc2cc3oc(-c4ccc(O)cc4)cc(=O)c3c(O)c2OC2O[C@H](CO)[C@@H](O)[C@H](O)[C@H]2O)[C@H](O)[C@@H](O)[C@@H]1O (some centres unmarked) [A15, 6-hydroxyapigenin-6-O-glucosyl-7-O-glucuronide]

IC50 at 15 min (CYP2C19; Sprague-Dawley, rat, pooled rat liver microsomes, pH 7.4, probe omeprazole (1.07 µM, in seven-probe cocktail), IC50 CYP2C19, single components, RLM 0.2 mg/mL, 15 min, triplicate, mean ± SD): 70.4 ± 1.18 µM
IC50 at 15 min (CYP2D6; Sprague-Dawley, rat, microsomes, pH 7.4, IC50 CYP2D6): 59.2 ± 1.01 µM
IC50 at 15 min (CYP2B6; [10]): > 200 µM
IC50 at 15 min (CYP2C9; Sprague-Dawley, rat, pooled rat liver microsomes, pH 7.4, probe tolbutamide (18 µM, in seven-probe cocktail), IC50 CYP2C9, single components, RLM 0.2 mg/mL, 15 min, triplicate, mean ± SD): 14.9 ± 4.24 µM
IC50 at 15 min (CYP3A4; [11]): 117 ± 6.77 µM
IC50 (CYP2E1 [2]): 32.5 ± 5.79 µM
IC50 (CYP1A2; [12]): 21.5 ± 4.5 µM
Molecule: O=c1c(O)c(-c2ccc(O)cc2)oc2cc(O)cc(O)c12 [A17, kaempferol]

IC50 at 15 min (CYP2B6; [10]): < 5 µM
IC50 (CYP2B6; [5]): 4.42 ± 1.31 µM
IC50 (CYP2E1 [2]): < 5 µM and 4.27 µM
IC50 (CYP1A2; [12]): < 5 µM and 0.12 µM
Molecule: O=c1c(O)c(-c2ccc(O)cc2)oc2cc(O)c(O)c(O)c12 [A18, 6-hydroxykaempferol]

IC50 CYP2C19 (CYP2C19; microsomes): >200 µg/mL
IC50 CYP2D6 (CYP2D6; microsomes): 126.17 ± 17.63 µg/mL
inhibition on CYP2D6 (in words) (CYP2D6; microsomes): weak inhibition
IC50 CYP2B6 (CYP2B6; microsomes): 58.09 ± 13.41 µg/mL
inhibition on CYP2B6 (in words) (CYP2B6; microsomes): moderate inhibition
IC50 CYP2C9 (CYP2C9; microsomes): 183.30 ± 17.98 µg/mL
inhibition on CYP2C9 (in words) (CYP2C9; microsomes): weak inhibition
IC50 CYP3A4 (CYP3A4; microsomes): >200 µg/mL
IC50 CYP1A2 (CYP1A2; microsomes): 138.60 ± 14.36 µg/mL
inhibition on CYP1A2 (in words) (CYP1A2; microsomes): weak inhibition
Molecule: Carthamus tinctorius extract [CTE]

Molecule: kaempferol-3-O-rutinoside [A11]
IC50 (CYP2C19; [3]): > 200 µM
IC50 (CYP2D6; [4]): 64.5 ± 7.71 µM
IC50 (CYP2B6; [5]): 17.3 ± 0.96 µM
IC50 (CYP2C9; [6]): 24.9 ± 4.96 µM
IC50 (CYP3A4; [7]): 16.2 ± 4.3 µM

IC50 CYP2C19 (CYP2C19; microsomes): 40.85 ± 6.98 µg/mL
IC50 CYP2D6 (CYP2D6; microsomes): 12.23 ± 4.25 µg/mL
IC50 CYP2B6 (CYP2B6; microsomes): 43.90 ± 7.91 µg/mL
IC50 CYP2C9 (CYP2C9; microsomes): 9.32 ± 0.56 µg/mL
IC50 CYP3A4 (CYP3A4; microsomes): 106.27 ± 14.00 µg/mL
IC50 CYP1A2 (CYP1A2; microsomes): 60.68 ± 2.26 µg/mL
Molecule: notoginseng total saponins [NGTS]
